Data published in US5939399A, “Polyene antibiotics, 3874 H1 to H6, processes for their preparation and use” (Hoechst Aktiengesellschaft, priority 1996, dated 1999).
Values after ≈ are worked out from the molar mass of the structure shown.

Legend:
[1] = Solubility in organic solvents; assay type: physicochemical
Chemical stability = assay type: physicochemical; conditions: for Stability (unstable in / on exposure to): acidic and strongly alkaline solution, light, heat and oxygen; for Stability (stable in): neutral and weakly alkaline medium
test microbes = assay: Agar diffusion test, zones of inhibition; assay type: cell-based; conditions: for zone of inhibition at 25 µg/mL: concentration 0.025 mg/mL; for zone of inhibition at 25 µg/mL / zone of inhibition at 50 µg/mL / zone of inhibition at 100 µg/mL / zone of inhibition at 200 µg/mL / Zone of inhibition (diameter): agar layer; for zone of inhibition at 25 µg/mL / zone of inhibition at 50 µg/mL / zone of inhibition at 100 µg/mL / zone of inhibition at 200 µg/mL / zone of inhibition at 6.3 µg/mL / zone of inhibition at 12.5 µg/mL: read-out: Zone of inhibition (diameter); for zone of inhibition at 50 µg/mL: concentration 0.05 mg/mL; for zone of inhibition at 100 µg/mL: concentration 0.1 mg/mL; for zone of inhibition at 200 µg/mL: concentration 0.2 mg/mL
Description: The superiority of the antibiotics according to the invention is shown particularly in so-called diffusion tests in which the compounds diffuse in an agar layer containing the test microbes. The diameter of the zones of inhibition is then a measure of the activity of the antibiotics (Table 3).

[2] = test system: C. parapsilosis ATCC 90018; assay: In vitro microdilution test in RPMI 1640 medium; assay type: cell-based; conditions: Lodderomyces parapsilosis, ATCC90018, yeast C. parapsilosis ATCC 90018, 48 h at 35° C., read-out: Minimum inhibitory concentration MIC
Protocol: (§1) In vitro activity on dermatophytes, yeasts and molds
(§2) (microdilution test in RPMI 1640 medium)
(§3) Incubation: 48 h at 35° C. (yeasts) or 6 days at 30° C. (dermatophytes and molds)

C. krusei Berlin 1 = assay: In vitro microdilution test in RPMI 1640 medium; assay type: cell-based; conditions: Pichia kudriavzevii, BERLIN1, yeast C. krusei Berlin 1, 48 h at 35° C., read-out: Minimum inhibitory concentration MIC
Protocol: as §1, §2, §3

C. albicans ATCC 90028 = assay: In vitro microdilution test in RPMI 1640 medium; assay type: cell-based; conditions: Candida albicans, ATCC90028, yeast C. albicans ATCC 90028, 48 h at 35° C., read-out: Minimum inhibitory concentration MIC
Protocol: as §1, §2, §3

T. mentagrophytes 100/25 = assay: In vitro microdilution test in RPMI 1640 medium; assay type: cell-based; conditions: Trichophyton mentagrophytes, 144 h, dermatophyte T. mentagrophytes 100/25, 6 days at 30° C., read-out: Minimum inhibitory concentration MIC
Protocol: as §1, §2, §3

C. krusei 203/230 = assay: In vitro microdilution test in RPMI 1640 medium; assay type: cell-based; conditions: Pichia kudriavzevii, yeast C. krusei 203/230, 48 h at 35° C., read-out: Minimum inhibitory concentration MIC
Protocol: as §1, §2, §3

C. albicans ATCC 90029 = assay: In vitro microdilution test in RPMI 1640 medium; assay type: cell-based; conditions: Candida albicans, ATCC90029, yeast C. albicans ATCC 90029, 48 h at 35° C., read-out: Minimum inhibitory concentration MIC
Protocol: as §1, §2, §3

C. tropicalis 201/202 = assay: In vitro microdilution test in RPMI 1640 medium; assay type: cell-based; conditions: Candida tropicalis, yeast C. tropicalis 201/202, 48 h at 35° C., read-out: Minimum inhibitory concentration MIC
Protocol: as §1, §2, §3

A. fumigatus ATCC 9197 = assay: In vitro microdilution test in RPMI 1640 medium; assay type: cell-based; conditions: Aspergillus fumigatus, ATCC9197, 144 h, mold A. fumigatus ATCC 9197, 6 days at 30° C., read-out: Minimum inhibitory concentration MIC
Protocol: as §1, §2, §3

A. niger ATCC 16404 = assay: In vitro microdilution test in RPMI 1640 medium; assay type: cell-based; conditions: Aspergillus niger, ATCC16404, 144 h, mold A. niger ATCC 16404, 6 days at 30° C., read-out: Minimum inhibitory concentration MIC
Protocol: as §1, §2, §3

C. glabrata Berlin 12 = assay: In vitro microdilution test in RPMI 1640 medium; assay type: cell-based; conditions: Nakaseomyces glabratus, BERLIN12, yeast C. glabrata Berlin 12, 48 h at 35° C., read-out: Minimum inhibitory concentration MIC
Protocol: as §1, §2, §3

C. tropicalis 201/201 = assay: In vitro microdilution test in RPMI 1640 medium; assay type: cell-based; conditions: Candida tropicalis, yeast C. tropicalis 201/201, 48 h at 35° C., read-out: Minimum inhibitory concentration MIC
Protocol: as §1, §2, §3

C. glabrata ATCC 90030 = assay: In vitro microdilution test in RPMI 1640 medium; assay type: cell-based; conditions: Nakaseomyces glabratus, ATCC90030, yeast C. glabrata ATCC 90030, 48 h at 35° C., read-out: Minimum inhibitory concentration MIC
Protocol: as §1, §2, §3

C. neoformans ATCC 90112 = assay: In vitro microdilution test in RPMI 1640 medium; assay type: cell-based; conditions: Cryptococcus neoformans, ATCC90112, yeast C. neoformans ATCC 90112, 48 h at 35° C., read-out: Minimum inhibitory concentration MIC
Protocol: as §1, §2, §3

[3] = test system: C. pseudotropicalis 202/218; assay: In vitro microdilution test in RPMI 1640 medium; assay type: cell-based; conditions: Kluyveromyces marxianus, yeast C. pseudotropicalis 202/218, 48 h at 35° C., read-out: Minimum inhibitory concentration MIC
Protocol: as §1, §2, §3

T. rubrum 101/58 = assay: In vitro microdilution test in RPMI 1640 medium; assay type: cell-based; conditions: Trichophyton rubrum, 144 h, dermatophyte T. rubrum 101/58, 6 days at 30° C., read-out: Minimum inhibitory concentration MIC
Protocol: as §1, §2, §3

E. floccosum 190/143 = assay: In vitro microdilution test in RPMI 1640 medium; assay type: cell-based; conditions: Epidermophyton floccosum, 144 h, dermatophyte E. floccosum 190/143, 6 days at 30° C., read-out: Minimum inhibitory concentration MIC
Protocol: as §1, §2, §3

A. flavus ATCC 9643 = assay: In vitro microdilution test in RPMI 1640 medium; assay type: cell-based; conditions: Aspergillus flavus, ATCC9643, 144 h, mold A. flavus ATCC 9643, 6 days at 30° C., read-out: Minimum inhibitory concentration MIC
Protocol: as §1, §2, §3

[4] = Binding to ergosterol compared with cholesterol

Structure (SMILES) | Solubility [1] | Stability (unstable in / on exposure to) (Chemical stability) | Stability (stable in) (Chemical stability) | zone of inhibition at 25 µg/mL (test microbes) [mm] | zone of inhibition at 50 µg/mL (test microbes) [mm] | zone of inhibition at 100 µg/mL (test microbes) [mm] | zone of inhibition at 200 µg/mL (test microbes) [mm] | zone of inhibition at 6.3 µg/mL (test microbes) [mm] | zone of inhibition at 12.5 µg/mL (test microbes) [mm] | MIC [2] [µg/mL] | MIC (C. krusei Berlin 1) [µg/mL] | MIC (C. albicans ATCC 90028) [µg/mL] | MIC (T. mentagrophytes 100/25) [µg/mL] | MIC (C. krusei 203/230) [µg/mL] | MIC (C. albicans ATCC 90029) [µg/mL] | MIC (C. tropicalis 201/202) [µg/mL] | MIC (A. fumigatus ATCC 9197) [µg/mL] | MIC (A. niger ATCC 16404) [µg/mL] | MIC (C. glabrata Berlin 12) [µg/mL] | MIC (C. tropicalis 201/201) [µg/mL] | other results
CC1/C=C/C=C/C=C\C=C/C=C/C=C/C=C/C(OC2OC(C)C(O)C(N)C2O)CC2OC(O)(CC(O)CC(O)CC(O)CCCC(O)CC(O)CC(=O)OC1C(C)CCC(O)CC(=O)c1ccc(N)cc1)CC(O)C2C(=O)O (stereo not drawn) [3874 H1] | soluble in methanol, acetonitrile and chloroform | unstable in acidic and strongly alkaline solution and on exposure to light, heat and oxygen | Stable in neutral and weakly alkaline medium | 21 | 24 | 25 | 26 | 17 | 19 | 4 (≈ 3.64 µM) | 2 (≈ 1.82 µM) | 2 (≈ 1.82 µM) | 4 (≈ 3.64 µM) | 4 (≈ 3.64 µM) | 2 (≈ 1.82 µM) | 2 (≈ 1.82 µM) | 4 (≈ 3.64 µM) | 2 (≈ 1.82 µM) | 2 (≈ 1.82 µM) | 2 (≈ 1.82 µM) | MIC (C. glabrata ATCC 90030): 4 µg/mL (≈ 3.64 µM); MIC (C. neoformans ATCC 90112): 2 µg/mL (≈ 1.82 µM); MIC [3]: 2 µg/mL (≈ 1.82 µM); MIC (T. rubrum 101/58): 16 µg/mL (≈ 14.6 µM); MIC (E. floccosum 190/143): 16 µg/mL (≈ 14.6 µM); MIC (A. flavus ATCC 9643): 8 µg/mL (≈ 7.28 µM)
CNc1ccc(C(=O)CC(O)CCC(C)C2OC(=O)CC(O)CC(O)CCCC(O)CC(O)CC(O)CC3(O)CC(O)C(C(=O)O)C(CC(OC4OC(C)C(O)C(N)C4O)/C=C/C=C/C=C/C=C\C=C/C=C/C=C/C2C)O3)cc1 (stereo not drawn) [3874 H2] | soluble in methanol, acetonitrile and chloroform | unstable in acidic and strongly alkaline solution and on exposure to light, heat and oxygen | Stable in neutral and weakly alkaline medium |  |  |  |  |  |  |  |  |  |  |  |  |  |  |  |  |  | 
C/C=C/C=C/C(=O)CC(O)CCC(C)C1OC(=O)CC(O)CC(O)CCCC(O)CC(O)CC(O)CC2(O)CC(O)C(C(=O)O)C(CC(OC3OC(C)C(O)C(N)C3O)/C=C/C=C/C=C/C=C\C=C/C=C/C=C/C1C)O2 (stereo not drawn) [3874 H3] | soluble in methanol and other lower alcohols, acetonitrile and chloroform | unstable in acidic and strongly alkaline solution and on exposure to light, heat and oxygen | Stable in neutral and weakly alkaline medium | 14 | 18 | 20 | 22 | 12 | 13 | 4 (≈ 3.72 µM) | 2 (≈ 1.86 µM) | 4 (≈ 3.72 µM) | 8 (≈ 7.45 µM) | 4 (≈ 3.72 µM) | 4 (≈ 3.72 µM) | 4 (≈ 3.72 µM) | 4 (≈ 3.72 µM) | 8 (≈ 7.45 µM) | 4 (≈ 3.72 µM) | 4 (≈ 3.72 µM) | Binding to ergosterol versus cholesterol [4]: bind more strongly to ergosterol than to cholesterol; MIC (C. glabrata ATCC 90030): 4 µg/mL (≈ 3.72 µM); MIC (C. neoformans ATCC 90112): 2 µg/mL (≈ 1.86 µM); MIC [3]: 4 µg/mL (≈ 3.72 µM); MIC (T. rubrum 101/58): 16 µg/mL (≈ 14.9 µM); MIC (E. floccosum 190/143): 16 µg/mL (≈ 14.9 µM); MIC (A. flavus ATCC 9643): 16 µg/mL (≈ 14.9 µM)
C[C@@H]1[C@H](O)[C@@H](C)/C=C/C=C/C=C/C=C/C=C/C=C/C=C/[C@H](O[C@@H]2O[C@H](C)[C@@H](O)[C@H](N)[C@@H]2O)C[C@@H]2O[C@](O)(C[C@@H](O)C[C@@H](O)[C@H](O)CC[C@@H](O)C[C@@H](O)CC(=O)O[C@H]1C)C[C@H](O)[C@H]2C(=O)O [Amphotericin B, amphotericin B, reference compound] | only very low solubility in the said solvents and others |  |  | 8 | 10 | 12 | 14 |  |  |  |  |  |  |  |  |  |  |  |  |  | Zone of inhibition (diameter) (test microbes; concentration 0.0063 mg/mL): .o slashed.; Zone of inhibition (diameter) (test microbes; concentration 0.0125 mg/mL): .o slashed.
